This series can be described thus: Solubility in PBS solution (pH 7.4) at room temperature. It counts as physicochemical. The settings on record: for solubility at 24 h: PBS solution (pH 7.4), aqueous buffer, kinetic from dmso stock, PBS pH 7.4, room temperature, 24 hours shaking, 1% DMSO, average of two measurements, read-out: Solubility in PBS pH7.4; for Solubility in the PBS solution (pH 7.4), in words: room temperature, PBS pH 7.4. The protocol: Test Example 1. Solubility of the Compound of the Present Disclosure in PBS Solution (pH 7.4) at Room Temperature
2.1 Formulation of the PBS solution (pH 7.4): 0.57 g of NaH2PO42.H2O, 5.55 g of Na2HPO4.12H2O and 6.48 g of NaCl were weighed, followed by the addition of ultra-pure water. The pH was adjusted to 7.4±0.05 with 1 M NaOH or 1 M HCl. Water was added until the volume reached 1 L. The PBS solution was stored in a refrigerator at 4° C. (the storage life was 6 months).
2.2 Formulation of the solution of the compound in PBS 7.4: An appropriate amount of the test compound was weighed, and dissolved in DMSO or a mixed solution of DMSO:acetonitrile:ethanol (1:1:1) to obtain a 10 mM stock solution of the test compound. 10 μL of the stock solution of the test compound and 990 μL of the PBS solution (pH 7.4) were precisely measured and placed in a 2 mL sample vial and mixed well, and the DMSO concentration of the final solution was 1% (v/v). This solution was formulated in duplicate, shaken on a plate bed at room temperature for 24 hours, and centrifuged at 5000 rpm for 20 minutes. The supernatant was analyzed by the liquid chromatograph.
2.3 Formulation of the reference solution: 10 μL of the stock solution of the test sample (concentration: 10 mM, dissolved in DMSO) and 990 μL of an organic mixed solvent (usually DMSO:acetonitrile:ethanol=1:1:1) were precisely measured and placed in a 2 mL sample vial, and mixed well to obtain a clear 100 μM sample solution. The solution was filtered through a 0.45 μm organic phase microporous filter membrane, and the filtrate was analyzed by the liquid chromatograph.
Solubility (μM)=peak area of the sample/peak area of the reference*concentration of the reference (μM)*sample solution dilution factor
The average of two measurements was used as the final solubility.

Structures are written as SMILES. In brackets after ≈: the same amount, converted by molar mass. Counter-ions that a name gives are not always drawn.

The solubility is the concentration that dissolves in the medium under given conditions. In the case of `Cc1cc(F)ccc1Oc1cc(C(F)(F)F)c(Cl)cc1C(=O)Nc1cn[nH]c(=O)c1` [Compound 1h, 5-Chloro-2-(4-fluoro-2-methylphenoxy)-N-(6-oxo-1,6-dihydropyridazin-4-yl)-4-(trifluoromethyl)benzamide], the solubility at 24 h amounted to 0.5 µM (≈ 0.221 µg/mL) and the “Solubility in the PBS solution (pH 7.4), in words” value (shortened to “Solubility in the PBS solution”) is “poor”.
Regarding `COc1cc(F)ccc1Oc1cc(C(F)(F)F)c(Cl)cc1C(=O)Nc1cn[nH]c(=O)c1` [Compound 6c, 5-Chloro-2-(4-fluoro-2-methoxyphenoxy)-N-(6-oxo-1,6-dihydropyridazin-4-yl)-4-(trifluoromethyl)benzamide], the solubility at 24 h is 0.44 µM (≈ 0.201 µg/mL) and the “Solubility in the PBS solution” value was “poor”.
On to `[2H]C([2H])([2H])Oc1cc(F)ccc1Oc1cc(C(F)(F)F)c(Cl)cc1C(=O)Nc1cn[nH]c(=O)c1` [Compound 7d, 5-Chloro-2-(4-fluoro-2-(methoxy-d3)phenoxy)-N-(6-oxo-1,6-dihydropyridazin-4-yl)-4-(trifluoromethyl)benzamide], for which the solubility at 24 h was found to be 1.26 µM (≈ 0.581 µg/mL) and the “Solubility in the PBS solution” value is reported as “poor”.
Regarding `Cc1cc(F)ccc1Oc1cc(C(F)(F)F)c(Cl)cc1C(=O)Nc1cnn(COS(=O)(=O)O)c(=O)c1` [Example 8, (4-(5-Chloro-2-(4-fluoro-2-methylphenoxy)-4-(trifluoromethyl)benzamido)-6-oxopyridazin-1(6H)-yl)methyl hydrogen sulfate], the solubility at 24 h came out at 707 µM.
For the compound `Cc1cc(F)ccc1Oc1cc(C(F)(F)F)c(Cl)cc1C(=O)Nc1cnn(COC(=O)/C=C/C(=O)O)c(=O)c1` [Example 9, (E)-4-((4-(5-Chloro-2-(4-fluoro-2-methylphenoxy)-4-(trifluoromethyl)benzamido)-6-oxopyridazin-1(6H)-yl)methoxy)-4-oxobut-2-enoic acid], the solubility at 24 h stood at 63.5 µM (≈ 36.2 µg/mL).
On to `Cc1cc(F)ccc1Oc1cc(C(F)(F)F)c(Cl)cc1C(=O)Nc1cnn(COC(=O)CC(=O)O)c(=O)c1` [Example 10, 3-((4-(5-Chloro-2-(4-fluoro-2-methylphenoxy)-4-(trifluoromethyl)benzamido)-6-oxopyridazin-1(6H)-yl)methoxy)-3-oxopropanoic acid], for which the solubility at 24 h was found to be 147 µM (≈ 82 µg/mL).
`[2H]C([2H])([2H])Oc1cc(F)ccc1Oc1cc(C(F)(F)F)c(Cl)cc1C(=O)Nc1cnn(COS(=O)(=O)O)c(=O)c1` [Example 12, (4-(5-Chloro-2-(4-fluoro-2-(methoxy-d3)phenoxy)-4-(trifluoromethyl)benzamido)-6-oxopyridazin-1(6H)-yl)methyl hydrogen sulfate]: the solubility at 24 h came to 96.2 µM.
As to `[2H]C([2H])([2H])Oc1cc(F)ccc1Oc1cc(C(F)(F)F)c(Cl)cc1C(=O)Nc1cnn(COC(=O)/C=C/C(=O)O)c(=O)c1` [Example 13, (E)-4-((4-(5-Chloro-2-(4-fluoro-2-(methoxy-d3)phenoxy)-4-(trifluoromethyl)benzamido)-6-oxopyridazin-1(6H)-yl)methoxy)-4-oxobut-2-enoic acid], the solubility at 24 h is 63.6 µM (≈ 37.4 µg/mL).

Values taken from patent publication US20220162169A1, “6-OXO-1,6-DIHYDROPYRIDAZINE PRODRUG DERIVATIVE, PREPARATION METHOD THEREFOR, AND APPLICATION THEREOF IN MEDICINE” (JIANGSU HENGRUI MEDICINE CO., LTD., priority 2019, published 2022).
